Assay results published in ChEMBL document CHEMBL1151966, “Okundoperoxide, a bicyclic cyclofarnesylsesquiterpene endoperoxide from Scleria striatinux with antiplasmodial activity” (J Nat Prod, 2009).
Values after ≈ are worked out from the molar mass of the structure shown.

Columns and labels:
Plasmodium falciparum [1] = assay: Antiplasmodial activity after 24 hrs against chloroquine,pyrimethamine-resistant Plasmodium falciparum K1 infected human erythrocytes by [3H]hypoxanthine uptake; format: functional, organism-based
[2] = Cytotoxicity against human erythrocytes; format: cell-based; settings: Erythrocyte
Plasmodium falciparum [3] = assay: Antiplasmodial activity after 24 hrs against drug-sensitive Plasmodium falciparum NF54 infected human erythrocytes by [3H]hypoxanthine uptake; format: functional, organism-based
Plasmodium falciparum [4] = assay: Antiplasmodial activity after 24 hrs against chloroquine-sensitive Plasmodium falciparum D6 infected human erythrocytes by [3H]hypoxanthine uptake; format: functional, organism-based
Plasmodium falciparum [5] = assay: Antiplasmodial activity after 24 hrs against chloroquine-resistant Plasmodium falciparum W2 infected human erythrocytes by [3H]hypoxanthine uptake; format: functional, organism-based

SMILES | IC50 (Plasmodium falciparum [1]) [µg/mL] | IC50 [2] [µg/mL] | IC50 (Plasmodium falciparum [3]) [µg/mL] | IC50 (Plasmodium falciparum [4]) [µg/mL] | IC50 (Plasmodium falciparum [5]) [µg/mL]
C/C(=C\CO)[C@H]1C[C@H]2C(C)(C)C(=O)C=C[C@]2(C)OO1 (relative stereo) [OKUNDOPEROXIDE] | 1.5 (≈ 5.62 µM) | 22.7 (≈ 85.2 µM) | 1.31 (≈ 4.91 µM) | 0.483 (≈ 1.81 µM) | 0.47 (≈ 1.76 µM)
COc1cc([C@@H]2c3cc4c(cc3[C@H](O)[C@H]3COC(=O)[C@H]23)OCO4)cc(OC)c1OC [PODOFILOX] |  | 0.007 (≈ 0.0169 µM) |  |  | 
